Reference: patent US11702422B2, “Imidazopyridazines as modulators of IL-17” (Janssen Pharmaceutica NV, priority 2020, dated 2023)

What was measured:
[1] = tested on: IL-17A-induced G-CSF production in human normal keratinocyte (NHK); experiment: NHK Assay: IL-17A-induced G-CSF production in human normal keratinocytes; format: cell-based; details: Homo sapiens, Keratinocyte, 24 h, adult normal human keratinocytes, IL-17A 5 ng/mL, simple average if tested more than once
Method in brief: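 HTRF read-out of supernatant G-CSF, quantified from a standard curve, gave IC50 values. Adult keratinocytes, 3000-4000 cells/well, received human IL-17A (5 ng/mL final) pre-mixed 1 h at rt with compound, in 5% FBS and 0.2% DMSO, 24 h at 37° C.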

[2] = target: IL-17A(FLAG-Tagged): IL-17RA(His-Tagged) (Homo sapiens, UniProt Q16552, K93Q); experiment: IL-17A(FLAG-Tagged): IL-17RA(His-Tagged) Binding Disruption Eu-HTRF Assay; details: IL-17A/IL-17RA binding disruption, simple average if tested more than once
Method in brief: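 IC50 comes from a one-site competition fit of the HTRF 665/620 nm ratio. Compound dilutions (2-fold, 22 points) were held 1 h rt with FLAG-tagged IL-17A dimer, then His-tagged IL-17RA plus Eu-cryptate anti-FLAG and D2 anti-His antibodies were added for 2 h rt.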

UniProt Q16552, sequence (Q16552 with tags, fused parts or gaps K93Q): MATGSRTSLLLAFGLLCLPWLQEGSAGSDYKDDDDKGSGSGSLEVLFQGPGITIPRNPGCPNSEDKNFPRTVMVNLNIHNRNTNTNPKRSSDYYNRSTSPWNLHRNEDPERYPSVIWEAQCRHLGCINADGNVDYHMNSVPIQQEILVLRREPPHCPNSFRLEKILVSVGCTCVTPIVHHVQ

Compound | IC50 [1] | IC50 [2]
O=C(CCC(F)(F)F)N[C@@H](c1cnn2cc([C@@H](NC(=O)c3nonc3OCC(F)(F)F)C3CCC(F)(F)CC3)nc2c1)C1CC1 [Example 382, N—((S)-(7-((R)-Cyclopropyl(4,4,4-trifluorobutanamido)methyl)imidazo[1,2-b]pyridazin-2-yl)(4,4-difluorocyclohexyl)methyl)-4-(2,2,2-trifluoroethoxy)-1,2,5-oxadiazole-3-carboxamide] | 11 nM | 51 nM
O=C(CCC(F)(F)F)N[C@@H](c1cnn2cc([C@@H](NC(=O)c3nonc3OCC(F)F)C3CCC(F)(F)CC3)nc2c1)C1CC1 [Example 383, N—((S)-(7-((R)-Cyclopropyl(4,4,4-trifluorobutanamido)methyl)imidazo[1,2-b]pyridazin-2-yl)(4,4-difluorocyclohexyl)methyl)-4-(2,2-difluoroethoxy)-1,2,5-oxadiazole-3-carboxamide] | 19 nM | 51 nM
O=C(CCC(F)(F)F)N[C@@H](c1cnn2cc([C@@H](NC(=O)c3nonc3OCCF)C3CCC(F)(F)CC3)nc2c1)C1CC1 [Example 384, N—((S)-(7-((R)-Cyclopropyl(4,4,4-trifluorobutanamido)methyl)imidazo[1,2-b]pyridazin-2-yl)(4,4-difluorocyclohexyl)methyl)-4-(2-fluoroethoxy)-1,2,5-oxadiazole-3-carboxamide] | 31 nM | 66 nM
O=C(CC1CC(F)(F)C1)N[C@@H](c1cnn2cc([C@@H](NC(=O)c3nonc3COC(F)F)C3CCC(F)(F)CC3)nc2c1)C1CC1 [Example 385, N—((S)-(7-((R)-Cyclopropyl(2-(3,3-difluorocyclobutyl)acetamido)methyl)imidazo[1,2-b]pyridazin-2-yl)(4,4-difluorocyclohexyl)methyl)-4-((difluoromethoxy)methyl)-1,2,5-oxadiazole-3-carboxamide] | 32 nM | 35 nM
O=C(CC1CC(F)(F)C1)N[C@@H](c1cnn2cc([C@@H](NC(=O)c3nonc3N3CCC3)C3CCC(F)(F)CC3)nc2c1)C1CC1 [Example 386, 4-(Azetidin-1-yl)-N—((S)-(7-((R)-cyclopropyl(2-(3,3-difluorocyclobutyl)acetamido)methyl)imidazo[1,2-b]pyridazin-2-yl)(4,4-difluorocyclohexyl)methyl)-1,2,5-oxadiazole-3-carboxamide] | 230 nM | 69 nM
CC(C)(F)c1nonc1C(=O)N[C@H](c1cn2ncc([C@H](NC(=O)CCC(F)(F)F)C3CC3)cc2n1)C1CCC(F)(F)CC1 [Example 388, N—((S)-(7-((R)-Cyclopropyl(4,4,4-trifluorobutanamido)methyl)imidazo[1,2-b]pyridazin-2-yl)(4,4-difluorocyclohexyl)methyl)-4-(2-fluoropropan-2-yl)-1,2,5-oxadiazole-3-carboxamide] | 100 nM | 85 nM
O=C(CC1CC(F)(F)C1)N[C@@H](c1cnn2cc([C@@H](NC(=O)c3nonc3OCC(F)F)C3CCC(F)(F)CC3)nc2c1)C1CC1 [Example 389, N—((S)-(7-((R)-Cyclopropyl(2-(3,3-difluorocyclobutyl)acetamido)methyl)imidazo[1,2-b]pyridazin-2-yl)(4,4-difluorocyclohexyl)methyl)-4-(2,2-difluoroethoxy)-1,2,5-oxadiazole-3-carboxamide] | 29 nM | 56 nM
O=C(CCC(F)F)N[C@@H](c1cnn2cc([C@@H](NC(=O)c3nonc3OCC(F)F)C3CCC(F)(F)CC3)nc2c1)C1CC1 [Example 390, N—((S)-(7-((R)-Cyclopropyl(4,4-difluorobutanamido)methyl)imidazo[1,2-b]pyridazin-2-yl)(4,4-difluorocyclohexyl)methyl)-4-(2,2-difluoroethoxy)-1,2,5-oxadiazole-3-carboxamide] | 130 nM | 86 nM
CCOc1nonc1C(=O)N[C@H](c1cn2ncc([C@H](NC(=O)CC3CC(F)(F)C3)C3CC3)cc2n1)C1CCC(F)(F)CC1 [Example 391, N—((S)-(7-((R)-Cyclopropyl(2-(3,3-difluorocyclobutyl)acetamido)methyl)imidazo[1,2-b]pyridazin-2-yl)(4,4-difluorocyclohexyl)methyl)-4-ethoxy-1,2,5-oxadiazole-3-carboxamide] | 47 nM | 43 nM
O=C(CC1CC(F)(F)C1)N[C@@H](c1cnn2cc([C@@H](NC(=O)c3nonc3C3(O)CCCC3)C3CCC(F)(F)CC3)nc2c1)C1CC1 [Example 393, N—((S)-(7-((R)-Cyclopropyl(2-(3,3-difluorocyclobutyl)acetamido)methyl)imidazo[1,2-b]pyridazin-2-yl)(4,4-difluorocyclohexyl)methyl)-4-(1-hydroxycyclopentyl)-1,2,5-oxadiazole-3-carboxamide] | 120 nM | 94 nM
CC(C)(O)Cc1nonc1C(=O)N[C@H](c1cn2ncc([C@H](NC(=O)CC3CC(F)(F)C3)C3CC3)cc2n1)C1CCC(F)(F)CC1 [Example 394, N—((S)-(7-((R)-Cyclopropyl(2-(3,3-difluorocyclobutyl)acetamido)methyl)imidazo[1,2-b]pyridazin-2-yl)(4,4-difluorocyclohexyl)methyl)-4-(2-hydroxy-2-methylpropyl)-1,2,5-oxadiazole-3-carboxamide] | 240 nM | 200 nM
O=C(CC1CC(F)(F)C1)N[C@@H](c1cnn2cc([C@@H](NC(=O)c3nocc3C3CC3)C3CCC(F)(F)CC3)nc2c1)C1CC1 [Example 403, 4-Cyclopropyl-N—((S)-(7-((R)-cyclopropyl(2-(3,3-difluorocyclobutyl)acetamido)methyl)imidazo[1,2-b]pyridazin-2-yl)(4,4-difluorocyclohexyl)methyl)isoxazole-3-carboxamide] | 170 nM | 63 nM
CN(C)c1nonc1C(=O)N[C@H](c1cn2ncc([C@H](NC(=O)CC3CC(F)(F)C3)C3CC3)cc2n1)C1CCC(F)(F)CC1 [Example 406, N—((S)-(7-((R)-Cyclopropyl(2-(3,3-difluorocyclobutyl)acetamido)methyl)imidazo[1,2-b]pyridazin-2-yl)(4,4-difluorocyclohexyl)methyl)-4-(dimethylamino)-1,2,5-oxadiazole-3-carboxamide] | 290 nM | 77 nM
O=C(CC1CC(F)(F)C1)N[C@@H](c1cnn2cc([C@@H](NC(=O)c3nonc3CN3CC(F)C3)C3CCC(F)(F)CC3)nc2c1)C1CC1 [Example 407, N—((S)-(7-((R)-Cyclopropyl(2-(3,3-difluorocyclobutyl)acetamido)methyl)imidazo[1,2-b]pyridazin-2-yl)(4,4-difluorocyclohexyl)methyl)-4-((3-fluoroazetidin-1-yl)methyl)-1,2,5-oxadiazole-3-carboxamide] | 97 nM | 240 nM
O=C(CC1CC(F)(F)C1)N[C@@H](c1cnn2cc([C@@H](NC(=O)c3nonc3N3CCOCC3)C3CCC(F)(F)CC3)nc2c1)C1CC1 [Example 408, N—((S)-(7-((R)-Cyclopropyl(2-(3,3-difluorocyclobutyl)acetamido)methyl)imidazo[1,2-b]pyridazin-2-yl)(4,4-difluorocyclohexyl)methyl)-4-morpholino-1,2,5-oxadiazole-3-carboxamide] | 370 nM | 54 nM
